Laboratory results from US20080015202A1, “Thiazole Derivatives Having Vap-1 Inhibitory Activity” (Astellas Pharma Inc., priority 2004, published 2008).
Where a name gives a salt, the structure may show the parent alone.

How the values were obtained:
[1] = target: T1, VAP-1 enzyme (SSAO) in human plasma (Homo sapiens, UniProt Q16853); experiment: Inhibitory effect on VAP-1 enzyme (SSAO) activity in human plasma, radiochemical-enzyme assay with 14C-benzylamine; format: biochemical; conditions: human plasma enzyme suspension; 30 min pre-incubation at room temperature; 14C-benzylamine 2×10^−5 mol/l, 37° C., 1 hour
T1 construct: The enzyme suspension prepared from blood plasma was pre-incubated with one of the present compounds; from tissue; host or cells: human blood plasma
T1 sequence (Q16853 27-763 limits assumed): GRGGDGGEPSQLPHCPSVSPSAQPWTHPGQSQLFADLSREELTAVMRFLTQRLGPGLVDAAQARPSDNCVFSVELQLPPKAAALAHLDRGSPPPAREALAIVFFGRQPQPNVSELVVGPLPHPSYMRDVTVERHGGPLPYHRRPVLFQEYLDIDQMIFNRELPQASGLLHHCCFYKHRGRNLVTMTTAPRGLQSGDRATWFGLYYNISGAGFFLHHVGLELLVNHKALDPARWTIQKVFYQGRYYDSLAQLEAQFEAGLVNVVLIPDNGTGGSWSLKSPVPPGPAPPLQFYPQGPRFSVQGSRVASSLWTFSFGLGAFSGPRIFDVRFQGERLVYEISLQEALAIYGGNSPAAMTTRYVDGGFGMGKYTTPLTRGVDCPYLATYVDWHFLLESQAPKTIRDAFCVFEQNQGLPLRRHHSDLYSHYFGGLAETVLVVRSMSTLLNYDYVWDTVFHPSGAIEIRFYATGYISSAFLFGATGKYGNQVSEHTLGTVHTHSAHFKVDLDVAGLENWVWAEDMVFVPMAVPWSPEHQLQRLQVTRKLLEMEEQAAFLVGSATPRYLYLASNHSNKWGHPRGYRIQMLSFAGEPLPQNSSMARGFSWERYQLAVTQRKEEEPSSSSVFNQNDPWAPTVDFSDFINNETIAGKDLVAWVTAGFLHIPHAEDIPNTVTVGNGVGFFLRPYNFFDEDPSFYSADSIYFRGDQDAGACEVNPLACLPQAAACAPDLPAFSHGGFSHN
Procedure: Inhibitory Effect of the Present Compounds on VAP-1 Enzyme (SSAO) Activity in Human Plasma.
VAP-1 enzyme (SSAO) activity in human plasma was determined by a radiochemical-enzyme assay using ^14C-benzylamine as an artificial substrate. The enzyme suspension prepared from blood plasma was pre-incubated with one of the present compounds or control compound (Reference Example) in 96-well microplate at room temperature for 30 minutes. The enzyme suspension was then incubated with ^14C-benzylamine (2×10^−5 mol/l final concentration) in a final volume of 50 μl at 37° C. for 1 hour. The enzyme reaction was terminated by adding 2 mol/l (50 μl) citric acid. The oxidized products were directly extracted into a 200 μl toluene scintillator, and its radioactivity was measured by a scintillation spectrometer. Inhibition activity was expressed as IC50 (μmol/l) value.

| SMILES | melting point | IC50 [1] |
| --- | --- | --- |
| CC(=O)Nc1nc(CCc2ccc(CCNC(=N)N)s2)cs1 [Production Example 1, N-(4-{2-[5-(2-{[amino(imino)methyl]amino}ethyl)-2-thienyl]ethyl}thiazol-2-yl)acetamide] | 121.5 to 123 °C | – |
| CC(=O)Nc1nc(CCc2ccc(CNC(=N)N)s2)cs1 [Production Example 3, N-(4-{2-[5-({[amino(imino)methyl]amino}methyl)-2-thienyl]ethyl}thiazol-2-yl)acetamide hydrochloride] | – | 12 nM |
| CC(=O)Nc1nc(CCc2ccc(CC(=O)NC(=N)N)s2)cs1 [Production Example 4, 2-{5-[2-(2-acetylaminothiazol-4-yl)ethyl]-2-thienyl}-N-[amino(imino)methyl]acetamide] | 188.5 to 190 °C | 2.4 nM |
| CC(=O)Nc1nc(CCc2ccc(CC(=O)O)s2)cs1 [Production Example 5, 2-{5-[2-(2-acetylaminothiazol-4-yl)ethyl]-2-thienyl}acetic acid] | 172 to 173.5 °C | – |

The remaining lines, values ahead:

| melting point | IC50 [1] | SMILES |
| --- | --- | --- |
| 140 to 141 °C | – | CC(=O)Nc1nc(CCc2ccc(CN3CCN(C(=O)OC(C)(C)C)CC3)cc2)cs1 [Production Example 11, tert-butyl 4-{4-[2-(2-acetylaminothiazol-4-yl)ethyl]benzyl}-1-piperazinecarboxylate] |
| 164 to 165.5 °C | – | CC(=O)Nc1nc(CCc2ccc(CN3CCNCC3)cc2)cs1 [Production Example 12, N-(4-{2-[4-(1-piperazinylmethyl)phenyl]ethyl}thiazol-2-yl)acetamide] |
| – | 5.3 nM | CC(=O)Nc1nc(CCc2ccc(Cc3c[nH]c(N)n3)cc2)cs1 [Production Example 17, N-[4-(2-{4-[(2-amino-1H-imidazol-4-yl)methyl]phenyl}ethyl)thiazol-2-yl]acetamide] |
